One block for each compound: values may come before it. Starred links: 1 amine or outer side, 2 acyl side, 3 side chain; linkers in the order of their positions; H or OH if unused. Non-standard residues stand in square brackets, D forms with d. Residues, ends and D or L forms follow the SMILES beside them. Groups on a side chain read outwards from the residue. *: point of attachment. γGlu = O=C(O)[C@H](CCC(=O)[*:2])N[*:1]; Palmitoyl = CCCCCCCCCCCCCCCC(=O)*; Myristoyl = CCCCCCCCCCCCCC(=O)*; Aib = CC(C)(N)C(=O)O
What was measured:
[1] = target: T1, glucagon receptor (Homo sapiens, UniProt P47871); assay: cAMP induction, firefly luciferase reporter assay, glucagon receptor; type: cell-based; conditions: for Activity at Glucagon Receptor % Relative Activity: compared to native glucagon
T1 construct: expressed in transfected cells; host or cells: HEK293
T1 sequence (P47871 26-477): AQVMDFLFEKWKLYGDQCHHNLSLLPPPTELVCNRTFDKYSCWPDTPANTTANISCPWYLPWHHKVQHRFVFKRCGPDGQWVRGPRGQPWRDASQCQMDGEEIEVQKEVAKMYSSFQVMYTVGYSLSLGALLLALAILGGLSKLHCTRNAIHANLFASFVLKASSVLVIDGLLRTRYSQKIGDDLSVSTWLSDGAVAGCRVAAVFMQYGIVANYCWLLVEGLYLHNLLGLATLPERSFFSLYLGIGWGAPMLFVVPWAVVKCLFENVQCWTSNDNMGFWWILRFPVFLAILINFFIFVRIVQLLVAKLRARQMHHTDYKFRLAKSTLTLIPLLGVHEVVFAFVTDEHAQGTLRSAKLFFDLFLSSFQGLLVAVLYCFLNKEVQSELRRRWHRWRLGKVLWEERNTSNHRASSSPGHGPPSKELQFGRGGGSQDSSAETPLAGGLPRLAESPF
Procedure: (§1) The ability of each peptide to induce cAMP was measured in a firefly luciferase-based reporter assay.
(§2) At the end of the incubation, 100 μL of LucLite luminescence substrate reagent (Perkin Elmer, Wellesley, Mass.) were added to each well. The plate was shaken briefly, incubated 10 min in the dark and light output was measured on MicroBeta-1450 liquid scintillation counter (Perkin-Elmer, Wellesley, Mass.).

[2] = target: T2, GLP-1 receptor (Homo sapiens, UniProt P43220); assay: cAMP induction, firefly luciferase reporter assay, GLP-1 receptor; type: cell-based; conditions: for Activity at GLP-1 Receptor % Relative Activity: compared to native GLP-1
T2 construct: expressed in transfected cells; host or cells: HEK293
T2 sequence (P43220 24-463): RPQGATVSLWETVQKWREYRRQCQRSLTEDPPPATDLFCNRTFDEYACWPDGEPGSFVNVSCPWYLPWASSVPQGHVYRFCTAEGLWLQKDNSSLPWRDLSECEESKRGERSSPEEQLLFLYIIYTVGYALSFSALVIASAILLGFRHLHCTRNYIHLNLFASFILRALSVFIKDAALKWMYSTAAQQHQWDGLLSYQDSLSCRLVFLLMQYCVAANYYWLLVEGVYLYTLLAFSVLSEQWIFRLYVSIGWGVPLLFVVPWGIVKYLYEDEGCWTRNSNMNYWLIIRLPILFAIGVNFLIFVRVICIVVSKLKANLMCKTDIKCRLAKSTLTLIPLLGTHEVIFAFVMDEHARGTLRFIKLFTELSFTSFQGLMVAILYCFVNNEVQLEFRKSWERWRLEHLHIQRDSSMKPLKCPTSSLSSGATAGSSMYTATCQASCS
Procedure: as §1, §2

Activity at Glucagon Receptor % Relative Activity ([1]; Table 2B): 115%
EC50 ([2]; Activity at GLP-1 Receptor EC50 (nM), Table 2B): 0.02 nM
Activity at GLP-1 Receptor % Relative Activity ([2]; Table 2B): 345%
Compound: CCCCCCCCCCCCCCCC(=O)N[C@@H](CCC(=O)N[C@@H](CCC(=O)NCCCC[C@H](NC(=O)[C@H](CC(=O)O)NC(=O)[C@H](CO)NC(=O)[C@@H](NC(=O)[C@H](Cc1ccccc1)NC(=O)[C@@H](NC(=O)CNC(=O)[C@H](CCC(N)=O)NC(=O)[C@@H](CO)NC(=O)[C@@H](N)Cc1c[nH]cn1)[C@@H](C)O)[C@@H](C)O)C(=O)N[C@@H](CO)C(=O)N[C@@H](CCCCN)C(=O)N[C@@H](Cc1ccc(O)cc1)C(=O)N[C@@H](CC(C)C)C(=O)N[C@@H](CC(=O)O)C(=O)NC(C)(C)C(=O)N[C@@H](CCCCN)C(=O)N[C@@H](CCCNC(=N)N)C(=O)N[C@@H](C)C(=O)N[C@@H](CCCCN)C(=O)N[C@@H](CCC(=O)O)C(=O)N[C@@H](Cc1ccccc1)C(=O)N[C@H](C(=O)N[C@@H](CS)C(=O)N[C@@H](Cc1c[nH]c2ccccc12)C(=O)N[C@@H](CC(C)C)C(=O)N[C@@H](CC(C)C)C(=O)N[C@@H](CC(=O)O)C(=O)N[C@H](C(N)=O)[C@@H](C)O)C(C)C)C(=O)O)C(=O)O [compound 63] (H-H[dS]QGTFTSDK([γGlu-γGlu-Palmitoyl])SKYLD[Aib]KRAKEFVCWLLDT-NH2; N-terminus assumed)

Activity at Glucagon Receptor % Relative Activity ([1]; Table 3A): 467%
Activity at GLP-1 Receptor % Relative Activity ([2]; Table 3A): 575%
Compound: CCCCCCCCCCCCCCCC(=O)N[C@@H](CCC(=O)NCCCC[C@H](NC(=O)[C@H](CC(=O)O)NC(=O)[C@H](CO)NC(=O)[C@@H](NC(=O)[C@H](Cc1ccccc1)NC(=O)[C@@H](NC(=O)CNC(=O)[C@H](CCC(N)=O)NC(=O)C(C)(C)NC(=O)[C@@H](N)Cc1c[nH]cn1)[C@@H](C)O)[C@@H](C)O)C(=O)N[C@@H](CO)C(=O)N[C@@H](CCCCN)C(=O)N[C@@H](Cc1ccc(O)cc1)C(=O)N[C@@H](CC(C)C)C(=O)N[C@@H](CC(=O)O)C(=O)NC(C)(C)C(=O)N[C@@H](CCCNC(=N)N)C(=O)N[C@@H](C)C(=O)N[C@@H](C)C(=O)N[C@@H](CCC(N)=O)C(=O)N[C@@H](CC(=O)O)C(=O)N[C@@H](Cc1ccccc1)C(=O)N[C@H](C(=O)N[C@@H](CCC(N)=O)C(=O)N[C@@H](Cc1c[nH]c2ccccc12)C(=O)N[C@@H](CC(C)C)C(=O)N[C@@H](CCSC)C(=O)N[C@@H](CC(=O)O)C(=O)N[C@H](C(N)=O)[C@@H](C)O)C(C)C)C(=O)O [compound 43] (H-H[Aib]QGTFTSDK([γGlu-Palmitoyl])SKYLD[Aib]RAAQDFVQWLMDT-NH2; N-terminus assumed)

EC50 ([1]; Activity at Glucagon Receptor EC50 [pM], Table 3B): 6 pM
Activity at Glucagon Receptor % Relative Activity ([1]; Table 3B): 709%
EC50 ([2]; Activity at GLP-1 Receptor EC50 [pM], Table 3B): 0.004 nM
Activity at GLP-1 Receptor % Relative Activity ([2]; Table 3B): 500%
Compound: CCCCCCCCCCCCCC(=O)N[C@@H](CCC(=O)N[C@@H](CCC(=O)NCCCC[C@H](NC(=O)[C@H](CC(=O)O)NC(=O)[C@H](CO)NC(=O)[C@@H](NC(=O)[C@H](Cc1ccccc1)NC(=O)[C@@H](NC(=O)CNC(=O)[C@H](CCC(N)=O)NC(=O)C(C)(C)NC(=O)[C@@H](N)Cc1c[nH]cn1)[C@@H](C)O)[C@@H](C)O)C(=O)N[C@@H](CO)C(=O)N[C@@H](CCCCN)C(=O)N[C@@H](Cc1ccc(O)cc1)C(=O)N[C@@H](CC(C)C)C(=O)N[C@@H](CC(=O)O)C(=O)NC(C)(C)C(=O)N[C@@H](CCCNC(=N)N)C(=O)N[C@@H](C)C(=O)N[C@@H](C)C(=O)N[C@@H](CCC(N)=O)C(=O)N[C@@H](CC(=O)O)C(=O)N[C@@H](Cc1ccccc1)C(=O)N[C@H](C(=O)N[C@@H](CCC(N)=O)C(=O)N[C@@H](Cc1c[nH]c2ccccc12)C(=O)N[C@@H](CC(C)C)C(=O)N[C@@H](CCSC)C(=O)N[C@@H](CC(=O)O)C(=O)N[C@H](C(N)=O)[C@@H](C)O)C(C)C)C(=O)O)C(=O)O [compound 70] (H-H[Aib]QGTFTSDK([γGlu-γGlu-Myristoyl])SKYLD[Aib]RAAQDFVQWLMDT-NH2; N-terminus assumed)

Reference: US8703701B2 (Indiana University Research and Technology Corporation, priority 2009, dated 2014)
